# Results from patent US7285555B2, “6-aryl-7-halo-imidazo[1,2-a]pyrimidines as anticancer agents” (Wyeth Holdings Corporation, priority 2003, dated 2007).
# How the values were obtained:
# KB-V1 cells = experiment: SRB cytotoxicity test procedure with KB-V1 cells; assay type: cell-based, human; settings: SRB assay
# Source text: (§1) Human cancer cell lines, unless otherwise noted, are obtained from the American Type Culture Collection (Rockville, Md.). The following drug-sensitive parental cell lines, and their derived drug-resistant counterparts, are obtained from the originators as listed: (a) S1 (parental line from a subclone of human colon carcinoma line LS174T) and derived S1-M1-3.2 (herein called S1-M1) which expresses the MXR drug transporter protein, are provided by Dr. L. Greenberger, Wyeth Research (Rabindran, S. K., He, H., Singh, M., Brown, E., Collins, K. I., Annable, T., and Greenberger, L. M. Reversal of a novel multidrug resistance mechanism in human colon carcinoma cells by fumitremorgin C. Cancer Res., 58: 5850-5858,1998); (b) parental HL-60 human promyelocytic leukemia line and derived HL-60/ADR, which expresses the MRP1 drug transporter protein, are provided by Dr. M. Center, University of Kansas (McGrath, T., and Center, M. S. Adriamycin resistance in HL60 cells in the absence of detectable P-glycoprotein. Biochem. Biophys. […] J. Biol. Chem., 261: 7762-7770, 1986) via Dr. L. Greenberger, Wyeth Research.
# (§2) The SRB standard cytotoxicity assay is done according to previously reported methods (Discafani, C. M., Carroll, M. L., Floyd Jr., M. B. F., Hollander, I. J., Husain, Z., Johnson, B. D., Kitchen, D., May, M. K., Malo, M. S., Minnick Jr., A. A., Nilakantan, R., Shen, R., Wang Y-F., Wissner, A., Greenberger, L. M. Irreversible inhibition of epidermal growth factor receptor tyrosine kinase with in vivo activity by N-[4-[3-bromophenyl)amino]-6-quinaxolinyl]-2-butynamide (CL-387,785). Biochem. Pharmacol., 57: 917-925, 1999). Briefly, cells are plated in 100 μL of medium in 96-well flat-bottom microtiter plates in the morning of day 1 and allowed to adhere to the plates for 2-6 hr. Compounds are serially diluted into medium as 2× stocks and 100 μL of these stocks are added to cells in duplicate. Compounds are incubated with cells for 3 days. At the end of the incubation period the sulforhodamine B (SRB) assay, which measures protein content as an assessment of cell survival, is performed as described previously (Skehan, P., Storeng, R., Scudiero, D., Monks, A., McMahon, J., Vistica, D., Warren, J. T., Bokesch, H., Kenney, S., Boyd, M. R. New calorimetric cytotoxicity assay for anticancer-drug screening. J. Natl. Cancer Inst., 82:1107-1112, 1990) with some modifications. Medium is gently decanted from plates and replaced with 200 μL per well of cold serum-free medium containing a final concentration of 10% trichloroacetic acid. The plates are incubated for 1 hr at 40, washed 5 times in cold distilled water, and air-dried overnight. The fixed cells are stained for 10 min with 80 μL per well of 0.04% SRB solution prepared in 1% glacial acetic acid. Staining solution is decanted, plates are washed 5 times in 1% glacial acetic acid, and then air-dried until completely dry. Stained cell product is dissolved in 150 μL per well of 10 mM Trizma Base with shaking for 20 minutes. Absorbance is read on a Victor V multi-label plate reader (Perkin Elmer, Gaithersburg, Md.).
# The KB lines express different amounts of the P-glycoprotein (MDR1) membrane pump which produces resistance to the action of many cytotoxic compounds, including paclitaxel and vincristine. The parental KB line expresses no P-glycoprotein, KB-8-5 expresses moderate levels of the protein, and KB-V1 expresses very high levels.
# KB-8-5 cells = experiment: SRB cytotoxicity test procedure with KB-8-5 cells; assay type: cell-based, human; settings: SRB assay
# Source text: as §1
# as §2, with “The fixed cells are stained for 10 min with 80 μL per well of 0.04% SRB solution prepared in 1% glacial acetic acid. Staining solution is decanted, plates are washed 5 times in 1% glacial acetic acid, and then air-dried until completely dry. Stained cell product is dissolved in 150 μL per well of 10 mM Trizma Base with shaking for 20 minutes.” left out, “Md.). […]” for “Md.).”
# COLO 205 cells = experiment: MTS cytotoxicity test procedure with COLO 205 cells; assay type: cell-based; settings: Homo sapiens, 72 h, MTS assay, three days of culture
# Protocol: The MTS assay, which is sold in kit form by Promega (Madison, Wis.; CellTiter 96 AQueous Non-Radioactive Cell Proliferation Assay), is based on the conversion by viable cells, but not by dead cells, of the tetrazolium salt, MTS (3-(4,5-dimethylthiazol-2-yl)-5-(3-carboxymethoxyphenyl)-2-(4-sulphophenyl)-2H-tetrazolium, inner salt), into a water-soluble colored formazan which is detected by spectrophotometry. Compounds are tested at nine concentrations, in order to determine IC50 values. For the test procedure, cells are harvested by trypsinization (or, in the case of non-adherent cells, by simple resuspension), washed, counted and distributed to wells of 96-well flat-bottom microtiter plates at 1000 cells per well in 200 μL of medium. In addition, one row of wells on a separate plate receives cells as above (“time 0” plate). All plates are incubated at 370 in humidified 5% CO2 in air for about 24 hr.
# On day 2, compounds for test are diluted and added to wells. Compounds are dissolved in DMSO at 10 mg/mL. For each compound, nine serial 2-fold dilutions are prepared in DMSO. Ten μL of each dilution in DMSO is transferred to 100 μL of medium, mixed well, and then 5 μL of this dilution is transferred in quadruplicate to wells containing cells. The final high concentration of each compound is typically 1-5 μM. Plates are returned to the incubator for three days. At the time of drug addition to the experimental plates, the MTS assay is run on the “time 0” plate. This gives the “time 0 MTS value” which is related to the number of viable cells per well at the time of drug addition.
# After three days of culture with test compounds (day 5 overall), the MTS assay is done on all wells of the experimental plates. The absorbance values of the quadruplicate sample wells are averaged and divided by the average of the “time 0” values. The average of control wells without drug, divided by the average “time 0” value, gives the maximal relative increase in MTS color yield due to cell growth during the final three days of culture. The average of control wells with high drug concentration, divided by the “time 0” value, gives the minimal relative color yield for cells that were completely killed. The nine values for each compound are plotted against concentration, and the concentration that produces a relative color yield half way between the maximum and minimum is taken as the IC50 value.
# COLO 205 is a human colon carcinoma cell line that is used for comparative testing of the examples of this invention and several reference compounds (Table 1). This line is sensitive to paclitaxel and vincristine.
# KB cells = experiment: SRB cytotoxicity test procedure with KB cells; assay type: cell-based; settings: Homo sapiens, SRB assay, means of 2 independent experiments
# Source text: Human cancer cell lines, unless otherwise noted, are obtained from the American Type Culture Collection (Rockville, Md.). […]
# The SRB standard cytotoxicity assay is done according to previously reported methods (Discafani, C. M., Carroll, M. L., Floyd Jr., M. B. F., Hollander, I. J., Husain, Z., Johnson, B. D., Kitchen, D., May, M. K., Malo, M. S., Minnick Jr., A. A., Nilakantan, R., Shen, R., Wang Y-F., Wissner, A., Greenberger, L. M. Irreversible inhibition of epidermal growth factor receptor tyrosine kinase with in vivo activity by N-[4-[3-bromophenyl)amino]-6-quinaxolinyl]-2-butynamide (CL-387,785). […] Absorbance is read on a Victor V multi-label plate reader (Perkin Elmer, Gaithersburg, Md.). […]
# [1] = system: highly purified tubulin (tubulin heterodimer); experiment: Competitive binding test procedure, [3H]colchicine; parameters: species or system bovine; settings: competitor 100 μM, [3H]colchicine 50 nM
# Protocol: (§3) Medium is RPMI-1640 with L-glutamine, supplemented with 10% heat-inactivated fetal calf serum, 100 units/mL penicillin, and 100 μg/mL streptomycin (Gibco, Grand Island, N.Y.). Microtubule-associated protein (MAP)-rich tubulin, containing about 70% tubulin and 30% MAPs (#ML113), and highly purified tubulin (>99% pure, #TL238), both from bovine brain, are obtained from Cytoskeleton, Inc., Denver, Colo. PEM buffer (80 mM piperazine-N,N′-bis[2-ethanesulfonic acid], pH 6.9, 1 mM ethylene glycol-bis(β-aminoethyl ether)-N,N,N′,N′-tetraacetic acid, 1 mM magnesium chloride) and guanosine 5′-triphosphate (GTP) are also obtained from Cytoskeleton. [^3H]paclitaxel, specific activity 14.7 Ci/mmol, is purchased from Moravek Biochemicals (Brea, Calif.). [^3H]vinblastine, specific activity 9.60 Ci/mmol and MicroSpin G-50 columns are obtained from Amersham Biosciences (Piscataway, N.J.). […] Other reagents are obtained from Sigma (St. Louis, Mo.).
# (§4) The binding of examples of this invention to highly purified tubulin is studied by competitive inhibition methods. […] To study possible competition at the taxane site, on the other hand, polymerized tubulin (microtubules) is used because paclitaxel binds preferentially to microtubules.
# (§5) Highly purified tubulin is dissolved in PEM buffer without GTP and used at a final concentration of 1.0 to 1.3 mg/ml (10 to 13 μM). […] These solutions are incubated at 240 for 1 hr and then applied to MicroSpin G-50 columns which are centrifuged for 2 min at 3000 rpm in an Eppendorf 5415C microfuge. An aliquot of each column effluent (containing tubulin and bound radioligand) is mixed with scintillation fluid and counted in a liquid scintillation spectrometer. […] Quadruplicates are averaged, and the ability of the competitor to inhibit the binding of the radioligand is expressed as a percentage of control binding in the absence of any competitor.
# MAP-rich tubulin = experiment: Tubulin polymerization test procedure with MAP-rich tubulin; assay type: biochemical, bovine; settings: MAP-rich tubulin with 1 mM GTP, compound 0.3 μM, at 20 min
# Protocol: as §3
# MAP-rich tubulin is dissolved in ice-cold PEM buffer containing 1 mM GTP (GPEM buffer) at a concentration of 1.3 mg/mL. The solution is centrifuged at top speed in an Eppendorf model 5415C microcentrifuge (Brinkmann Instruments, Westbury, N.Y.) for 10 min at 40 immediately before use. The tubulin solution is added to wells of a ½-area 96-well plate (Costar No. 3696, Corning, Inc., Corning, N.Y.) already containing the compounds of interest. Each compound is tested in duplicate at a final concentration of 0.3 μM in a volume of 110 μL per well. The final DMSO concentration in all wells is 0.3%. Control reactions, which receive compound solvent only, are done in quadruplicate. The plate is put in a SpectraMax Plus plate reader (Molecular Devices Corp. Sunnyvale, Calif.) thermostated at 240 and the absorbance of each well at 340 nm, a measure of the appearance of turbidity due to tubulin polymer formation, is determined every minute for 60 minutes. The absorbance at time 0 for each well is subtracted from each of the subsequent absorbance readings for that well, and then the duplicates are averaged.
# In this assay, control reactions with MAP-rich tubulin show an S-shaped absorbance profile characterized by three phases: first, a lag phase during which no change in absorbance occurs; second, a polymerization phase in which absorbance increases; and third, a plateau phase in which absorbance has reached a maximum and little or no further change occurs. Polymerization enhancers such as paclitaxel and docetaxel shorten or eliminate the lag phase, increase the rate of the polymerization phase, and often increase the height of the plateau. […] This has been expressed quantitatively in Table 6 by dividing the mean A340 of each sample at 20 min by the mean A340 of the control at 20 min to give a fold enhancement over control. […]
# [2] = system: polymerized tubulin (microtubules); experiment: Competitive binding test procedure, [3H]paclitaxel; parameters: species or system bovine; settings: competitor 20 μM, [3H]paclitaxel 2.1 μM
# Protocol: as §3, §4
# For competition with [^3H]paclitaxel, highly purified tubulin is dissolved in PEM buffer containing 0.75 M glutamate and 25 μM dideoxy-GTP; final protein concentration is 0.25 to 0.35 mg/mL (2.5 to 3.5 μM). These conditions foster the rapid formation of short, stable microtubule polymers (Hamel, E., del Campo, A. A., and Lin, C. M. Stability of tubulin polymers formed with dideoxyguanosine nucleotides in the presence and absence of microtubule-associated proteins. J. Biol. Chem., 259: 2501-2508, 1984). […] The reactions are then centrifuged at top speed in an Eppendorf 5415C microfuge for 20 min at room temperature in order to pellet the microtubule protein. Triplicate aliquots of each supernatant are mixed with scintillation fluid and counted in a liquid scintillation spectrometer. From the amount of radioactivity in the supernatants and the measured total starting radioactivity, the amount of [^3H]paclitaxel bound to pelleted microtubule protein is calculated. The ability of each competitor to inhibit radioligand binding to pelleted protein is expressed as a percent of controls without any competitor.
# [3] = system: highly purified tubulin (tubulin heterodimer); experiment: Competitive binding test procedure, [3H]vinblastine; parameters: species or system bovine; settings: competitor 100 μM, [3H]vinblastine 100 nM
# Protocol: as §3, §4, §5
# pure tubulin = experiment: Tubulin polymerization test procedure with pure tubulin; assay type: biochemical, bovine; settings: pure tubulin without added GTP
# Protocol: as §3
# The procedure with pure tubulin is similar except for the following changes. […] The supernatant after centrifugation is dispensed to a ½-area 96-well plate already containing compounds. Each compound is tested in duplicate at a final concentration of 24.3 μM. The plate reader μs thermostated at 35°.
melting point [°C],"[3H]Colchicine binding, Mean, percent of binding to control without competitor [1] [%]","[3H]Paclitaxel binding, Mean, percent of binding to control without competitor [2] [%]","[3H]Vinblastine binding, Mean, percent of binding to control without competitor [3] [%]",Structure (SMILES),"IC50 (KB-V1 cells; Homo sapiens, KB-V1, KB VI cells, means of 2 independent experiments) [nM]",Ratio VI/KB (KB-V1 cells; IC50 on KB VI cells/IC50 on KB cells),"IC50 (KB-8-5 cells; Homo sapiens, KB 8.5 cells, means of 2 independent experiments) [nM]",Ratio 8.5/KB (KB-8-5 cells; IC50 on KB 8.5 cells/IC50 on KB cells),IC50 (COLO 205 cells) [nM],IC50 (KB cells) [nM],A340 Compound / A340 Control (fold enhancement over control) (MAP-rich tubulin),polymerization of pure tubulin without GTP (in words) (pure tubulin)
52 to 55,–,–,–,"CN(C)CCCOc1cc(F)c(-c2c(Cl)nc3nccn3c2NCC(F)(F)F)c(F)c1 [Example 4, 7-chloro-6-{4-[3-(dimethylamino)propoxy]-2,6-difluorophenyl}-N-(2,2,2-trifluoroethyl)imidazo[1,2-a]pyrimidin-5-amine]",2390,99,59,2.5,88,24,–,–
–,99,22,5,"CC[C@]1(O)C[C@H]2CN(CCc3c([nH]c4ccccc34)[C@@](C(=O)OC)(c3cc4c(cc3OC)N(C=O)[C@H]3[C@@](O)(C(=O)OC)[C@H](OC(C)=O)[C@]5(CC)C=CCN6CC[C@]43[C@@H]65)C2)C1 [Vincristine, reference compound]",–,–,–,–,–,–,0.5,no activity
